Results reported in ChEMBL document CHEMBL1124317, “Rationale for the synthesis and preliminary biological evaluation of highly active new antitumor nitrosoureido sugars” (J Med Chem, 1989).

What was measured:
Mus musculus [1] = assay: The number of B16 Melanocarcinoma mice survived after 60 days with compound injected by a dose of 30 mg/kg intraperitoneally; 9/10; format: functional; details: route intraperitoneal
Mus musculus [2] = assay: The number of B16 Melanocarcinoma mice survived after 30 days with compound injected by a dose of 10 mg/kg intraperitoneally; 10/10; format: functional; details: route intraperitoneal
Mus musculus [3] = assay: The number of B16 melanocarcinoma mice survived after 60 days with compound in olive oil injected by a dose of 20 mg/kg intraperitoneally; 3/20; format: functional; details: route intraperitoneal
Mus musculus [4] = assay: Anti tumor activity l when treated to mice with L1210 leukemia with 5 mg/kg dose of compound intraperitoneally was expressed as percent of treated to control (T/C %); format: functional; details: route intraperitoneal
Mus musculus [5] = assay: The number of L1210 leukemia mice survived after 30 days with compound injected by a dose of 10 mg/kg intraperitoneally; 8/8; format: functional; details: route intraperitoneal
Mus musculus [6] = assay: The number of L1210 leukemia mice survived after 30 days with compound injected by a dose of 30 mg/kg intraperitoneally; 9/10; format: functional; details: route intraperitoneal
Mus musculus [7] = assay: The number of L1210 leukemia mice survived after 30 days with compound in aqueous solution injected by a dose of 20 mg/kg intraperitoneally; 6/10; format: functional; details: route intraperitoneal
Mus musculus [8] = assay: The number of B16 Melanocarcinoma mice survived after 30 days with compound injected by a dose of 5 mg/kg intraperitoneally; 9/10; format: functional; details: route intraperitoneal
Mus musculus [9] = assay: The number of B16 Melanocarcinoma mice survived after 60 days with compound injected by a dose of 20 mg/kg intraperitoneally; 9/10; format: functional; details: route intraperitoneal
Mus musculus [10] = assay: The number of L1210 leukemia mice survived after 60 days with compound in aqueous solution injected by a dose of 20 mg/kg intraperitoneally; 6/10; format: functional; details: route intraperitoneal
Mus musculus [11] = assay: The number of L1210 leukemia mice survived after 60 days with compound injected by a dose of 20 mg/kg intraperitoneally; 10/10; format: functional; details: route intraperitoneal
Mus musculus [12] = assay: The number of L1210 leukemia mice survived after 60 days with compound injected by a dose of 5 mg/kg intraperitoneally; 8/8; format: functional; details: route intraperitoneal
Mus musculus [13] = assay: The number of L1210 leukemia mice survived after 60 days with compound injected by a dose of 2.5 mg/kg intraperitoneally; 0/10; format: functional; details: route intraperitoneal
Mus musculus [14] = assay: The number of L1210 leukemia mice survived after 30 days with compound injected by a dose of 0.625 mg/kg intraperitoneally; 0/8; format: functional; details: route intraperitoneal
Mus musculus [15] = assay: Anti tumor activity l when treated to mice with L1210 leukemia with 0.625 mg/kg dose of compound intraperitoneally was expressed as percent of treated to control (T/C %); format: functional; details: route intraperitoneal
Mus musculus [16] = assay: Anti tumor activity l when treated to mice with B16 Melanocarcinoma with 10 mg/kg dose of compound intraperitoneally was expressed as percent of treated to control (T/C %); format: functional; details: route intraperitoneal
Mus musculus [17] = assay: Median survival time of the non surviving mice; treated with 20 mg/kg of compound in olive oil to mice with L1210 leukemia tumor; […]; format: functional
Mus musculus [18] = assay: Median survival time of the non surviving mice; treated with 1.25 mg/kg of compound to mice with L1210 leukemia; 16-19; format: functional
[19] = (§1) Lethal dose was evaluated in female mouse; format: toxicity, organism-based; details: in vivo
Mus musculus [20] = species on record: Mus musculus; assay: as §1; format: toxicity, organism-based; details: in vivo
[21] = Ratio of mice died to that of mice treated with 20 mg/kg of compound in olive oil intraperitoneally with B16 Melanocarcinoma; 0/20; format: functional; details: route intraperitoneal
[22] = Ratio of mice died to that of mice treated with 20 mg/kg of compound in olive oil intraperitoneally with Lewis lung; 0/20; format: functional; details: route intraperitoneal
[23] = Mortality range of the mice with B16 Melanocarcinoma treated with 10 mg/kg of dose intraperitoneally with no of mice survived/no of mice treated; 0/10; format: functional; details: route intraperitoneal
[24] = Mortality range of the mice with L1210 leukemia treated with 1.25 mg/kg of dose intraperitoneally with no of mice survived/no of mice treated; 0/8; format: functional; details: route intraperitoneal
[25] = Mortality range of the mice with L1210 leukemia treated with 2.5 mg/kg of dose intra peritoneally with no of mice survived/no of mice treated; 0/10; format: functional
[26] = Mortality range of the mice with L1210 leukemia treated with 2.5 mg/kg of dose intraperitoneally with no of mice survived/no of mice treated; 0/8; format: functional; details: route intraperitoneal
[27] = Mortality range of the mice with L1210 leukemia treated with 20 mg/kg of dose intraperitoneally with no of mice survived/no of mice treated; 0/10; format: functional; details: route intraperitoneal
[28] = Mortality range of the mice with B16 Melanocarcinoma treated with 30 mg/kg of dose intraperitoneally with no of mice survived/no of mice treated; 0/10; format: functional; details: route intraperitoneal
[29] = Mortality range of the mice with L1210 leukemia treated with 0.625 mg/kg of dose intraperitoneally with no of mice survived/no of mice treated; 0/8; format: functional; details: route intraperitoneal

In the case of `CO[C@@H]1C[C@@H](NC(=O)N(CCCl)N=O)[C@H](O)[C@@H](CO)O1` [ECOMUSTINE], the Survivals (Mus musculus [1]) is reported as 9, the Survivals (Mus musculus [2]) is reported as 10 and the Survivals (Mus musculus [3]) is reported as 3. For the same molecule, the T/C (Mus musculus [4]) was 164%, the Survivals (Mus musculus [5]) was 8 and the Survivals (Mus musculus [6]) was 9. For the same molecule, the “Survival after 30 days” value (Mus musculus [7]) was 6, the Survivals (Mus musculus [8]) was 9 and the Survivals (Mus musculus [9]) was 9. For the same molecule, the Survivals (Mus musculus [10]) was 6, the Survivals (Mus musculus [11]) was 10 and the Survivals (Mus musculus [12]) was 8. It also gave a Survivals (Mus musculus [13]) of 0, a Survivals (Mus musculus [14]) of 0 and a T/C (Mus musculus [15]) of 125%. The T/C (Mus musculus [16]) was 233%, the Median survival time (Mus musculus [17]) was 57.5 and the Median survival time (Mus musculus [18]) was 16.9. It also gave an LD50 [19] of 40.7 mg/kg, an LD10 (Mus musculus [20]) of 29.4 mg/kg and an LD90 (Mus musculus [20]) of 56.4 mg/kg. For the same molecule, the Ratio [21] was 0, the Ratio [22] was 0 and the Ratio [23] was 0. The Ratio [24] was 0, the Ratio [25] was 0 and the Ratio [26] was 0. It also gave a Ratio [27] of 0, a Ratio [28] of 0 and a Ratio [29] of 0.
